≈ marks a conversion by molar mass, not a printed value. Entries after “also recorded” stand apart in the source; their conditions may differ. Read-outs that look alike come from different tables or passages of the source.
Legend:
[1] = test system: B. subtilis ATCC6633; experiment: Antibacterial activity MIC, double-microdilution; type: cell-based, Bacillus subtilis; conditions: Bacillus subtilis, ATCC6633, read-out: Antibacterial activity MIC B. subtilis ATCC6633
[2] = target: Eukaryotic system (eukaryotic cytoplasmic ribosome); experiment: Eukaryotic translation inhibition, coupled transcription/translation, luciferase detection; type: biochemical; conditions: for Prokaryotic versus Eukaryotic selectivity IC50^Euk/IC50^Pro: ratio of eukaryotic to prokaryotic translation inhibition IC50; for more specific to the eukaryotic ribosome than parent (NB30 or NB54): comparison of eukaryotic IC50 values with parent structure
Excerpt: Prokaryotic and eukaryotic translation inhibition was quantified in coupled transcription/translation assays by using active luciferase detection, performed as described hereinabove. […] In all biological tests, all tested aminoglycosides were in their sulfate salt forms. The concentrations reported refer to that of the free amine form of each aminoglycoside.
(§1) In all biological experiments conducted, all tested aminoglycosides were in their sulfate salt forms. The concentrations reported in Table 3 refer to that of the free amine form of each aminoglycoside. Prokaryotic and eukaryotic translation inhibition was quantified in coupled transcription/translation assays as previously described. The half-maximal concentration (IC50) values were obtained from fitting concentration response curves to the data of at least three independent experiments, using GraFit 5 software.

[3] = Cell toxicity LC50 in HEK-293 cells; type: cell-based; conditions: human
Procedure: (§2) In order to ensure suitable cell viability for each of the tested compounds at the concentrations tested, cell toxicity was evaluated for each compound by measuring the half-maximal-lethal concentration value (LC50 values) in HEK-293 and HFF (human foreskin fibroblasts) cells.
(§3) The percentages of cell viability were calculated as the ratio between the numbers of living cells in cultures grown in the presence of the tested compounds, versus cultures grown under the identical protocol but without the tested compound. The results represent averages of at least three independent experiments.
(§4) The half-maximal lethal concentration (LC50) values were obtained from fitting concentration-response curves to the data of at least three independent experiments, using GraFit 5 software.

[4] = target: Prokaryotic system (prokaryotic ribosome); experiment: Prokaryotic translation inhibition, coupled transcription/translation, luciferase detection; type: biochemical
Procedure: Prokaryotic and eukaryotic translation inhibition was quantified in coupled transcription/translation assays by using active luciferase detection, performed as described hereinabove. […] All the experiments were performed in duplicates and analogous results were obtained in three different experiments. In all biological tests, all tested aminoglycosides were in their sulfate salt forms. The concentrations reported refer to that of the free amine form of each aminoglycoside.
as §1, with “software. All the experiments were performed in duplicates and analogous results were obtained in three different experiments.” for “software.”

[5] = test system: nonsense mutation constructs R3X, R245X, Q70X, W1282X, G542X in HEK-293 cells; experiment: Ex vivo stop codon readthrough assay, p2luc constructs transfected to HEK-293 cells; type: cell-based, human; conditions: ex vivo in HEK-293, all the mutations tested, FIGS. 4, 8-10
Procedure: For the ex vivo readthrough assays, the constructs harboring the R3X, R245X, Q70X and W1282X mutations were transfected to HEK-293 cells with Lipofectamine 2000 (Invitrogen) and addition of the tested compounds was performed 6 hours post transfection. The cells were harvested following 16 hours of incubation with the tested aminoglycosides. Stop codon readthrough was calculated as previously described (see, Grentzmann, G. et al., RNA, 1998, 4, p. 479).
The constructs were transfected into a human embryonic kidney cell line (HEK-293) and incubated with varying concentrations of NB122, NB123, NB54 and the control drug gentamicin, and the results are presented in FIGS. 4A-D.
As described hereinabove, the constructs of p2luc plasmid harboring the R3X, R245X, Q70X and W1282X mutations were transfected to HEK-293 cells using lipofectamine2000 and the tested compounds were added 6 hours post transfection. Cells were harvested after 16 hours incubation and luciferase activity was determined using the dual luciferase reporter assay system (Promega™). Stop codon readthrough was calculated as described previously, and the results are averages of at least three independent experiments.

[6] = Cell toxicity LC50 in HFF cells; type: cell-based; conditions: human
Procedure: as §2, §3, §4

[7] = test system: E. coli R477/100; experiment: Antibacterial activity MIC, double-microdilution; type: cell-based, Escherichia coli; conditions: Escherichia coli, R477/100, read-out: Antibacterial activity MIC E. coli R477/100
[8] = test system: nonsense mutation constructs R3X, R245X, G542X, W1282X, Q70X, R3381X (PCDH15, CFTR, IDUA, Dystrophin); experiment: In vitro stop codon readthrough assay, p2Luc dual luciferase, TNT reticulocyte lysate; type: biochemical; conditions: cell-free, mutations tested; comparison in words from FIGS. 2, 3, 5-7
Excerpt: DNA fragments derived from PCDH15, CFTR, Dystrophin and IDUA cDNAs, including the tested nonsense mutation or the corresponding wild type (wt) codon, and four to six upstream and downstream flanking codons were created by annealing following pairs of complementary oligonucleotides:
The fragments were inserted in frame into the polylinker of the p2Luc plasmid between either BamHI and SacI (p.R3X and p.R245X), or SalI and SacI (all the rest) restriction sites.
For the in vitro readthrough assays, the obtained plasm ids, with addition of the tested aminoglycosides were transcribed and translated using the TNT Reticulocyte Lysate Quick Coupled Transcription/Translation System. Luciferase activity was determined after 90 minutes of incubation at 30° C., using the Dual Luciferase Reporter Assay System (Promega™).
Initially, the influence of the chiral C5″-methyl group on readthrough potential was evaluated on the pseudo-trisaccharides NB118 and NB119 by using a dual luciferase reporter assay system as described hereinabove. Briefly, DNA fragments were cloned between BamHI and SacI restriction sites of the p2luc vector and the obtained constructs were transcribed and translated using TNT quick coupled transcription/translation system. The amount of the translated products was evaluated using the dual luciferase reporter assay system and used to calculate the suppression level.

[9] = Table 1, free amine concentration, sulfate salts tested
[10] = Table 1, read-out: Translation inhibition Eukaryotic System IC50
[11] = Table 3, read-out: Translation Inhibition IC50^Euk
[12] = HEK-293 cells, Table 1, read-out: Cell toxicity LC50 HEK-293
[13] = Table 1, read-out: Translation inhibition Prokaryotic system IC50
[14] = Table 3, read-out: Translation Inhibition IC50^Pro
[15] = HFF (human foreskin fibroblast) cells, Table 1, read-out: Cell toxicity LC50 HFF

Structure (SMILES) | MIC [1, 9] [µM] | IC50 [2, 10] [µM] | IC50 [2, 11] [µM] | Prokaryotic versus Eukaryotic selectivity IC50^Euk/IC50^Pro [2] | CC50 [3, 12] [µM] | IC50 [4, 13] [µM] | IC50 [4, 14] [µM] | observed efficacy of aminoglycoside-induced readthrough, order [5] | CC50 [6, 15] [µM] | MIC ([7]; Table 1) [µM] | in vitro readthrough activity (stop codon suppression level) [8] | other results
C[C@@H](N)[C@H]1O[C@@H](OC2C(O)[C@H](NC(=O)[C@@H](O)CCN)CC(N)[C@H]2O[C@H]2OC(CO)[C@@H](O)C(O)C2N)C(O)C1O (stereo partly drawn) [NB123, 5-O-(5-Amino-5,6-dideoxy-β-D-allofuranosyl)-1-N—[(S)-4-amino-2-hydroxy-butanoyl] paromamine] | 33 | 4.6 ± 0.6 | 4.6 ± 0.6 | 5.7 | 13900 ± 1300 | 0.811 ± 0.059 | 0.811 ± 0.059 | NB122≥NB123>NB54>gentamicin | 19300 ± 1500 | 1060 (≈ 602 µg/mL) | – | –
NC1C(OCOC2C(N)[C@H](O[C@H]3C(N)C[C@H](N)C(O)C3O)OC(CO)[C@@H]2O)[C@H](O)C(CO)O[C@@H]1O[C@@H]1C(N)C[C@@H](N)C(O)C1O (stereo partly drawn) [NB33, reference compound] | – | – | – | about 2 | – | – | – | – | – | – | essentially no readthrough activity; also recorded: almost no readthrough activity | –
C[C@H](N)[C@H]1O[C@@H](OC2C(O)[C@H](N)CC(N)[C@H]2O[C@H]2OC(CO)[C@@H](O)C(O)C2N)C(O)C1O (stereo partly drawn) [NB118, 5-O-(5-Amino-5,6-dideoxy-α-L-talofuranosyl)-paromamine] | 83 | 16 | 15.5 ± 1.3 | 7.9 | 23500 | 1.96 ± 0.206 | 1.96 ± 0.206 | – | 21800 ± 500 | 2660 (≈ 1250 µg/mL) | significantly better than that of the clinical drug gentamicin | more specific to the eukaryotic ribosome than parent (NB30 or NB54) [2]: 1.9 fold
C[C@H](N)[C@H]1O[C@@H](OC2C(O)[C@H](N)CC(N)[C@H]2O[C@H]2OC([C@@H](C)O)[C@@H](O)C(O)C2N)C(O)C1O (stereo partly drawn) [NB124, 6′-(R)-Methyl-5-O-(5-amino-5,6-dideoxy-α-L-talofuranosyl)-Paromamine] | – | – | 1.49 ± 0.08 | 1.3 | – | – | 1.1 ± 0.185 | NB124>NB125>NB74>gentamicin | – | – | improved significantly compared to that of the clinical drug gentamicin | MIC ([1]; Table 2): 96 µM (≈ 46.3 µg/mL); IC50 ([2]; Table 2, read-out: Translation Inhibition Eukaryotic System IC50): 1.49 ± 0.08 µM; CC50 ([3]; HEK-293 cells, Table 2, read-out: Cell toxicity LC50 HEK-293): 5400 ± 450 µM; IC50 ([4]; Table 2, read-out: Translation Inhibition Prokaryotic system IC50): 1.1 ± 0.185 µM; CC50 ([6]; HFF (human foreskin fibroblast) cells, Table 2, read-out: Cell toxicity LC50 HFF): 4750 ± 330 µM; MIC ([7]; Table 2): 768 µM (≈ 371 µg/mL)
C[C@H](N)[C@H]1O[C@@H](OC2C(O)[C@H](NC(=O)[C@@H](O)CCN)CC(N)[C@H]2O[C@H]2OC(CO)[C@@H](O)C(O)C2N)C(O)C1O (stereo partly drawn) [NB122, 5-O-(5-Amino-5,6-dideoxy-α-L-talofuranosyl)-1-N—[(S)-4-amino-2-hydroxy-butanoyl]paromamine] | 33 | 5.2 | 5.2 ± 0.7 | 2.3 | 10100 | 2.27 ± 0.196 | 2.27 ± 0.196 | NB122≥NB123>NB54>gentamicin | 8100 ± 1400 | 1070 (≈ 608 µg/mL) | induced the highest level of readthrough | more specific to the eukaryotic ribosome than parent (NB30 or NB54) [2]: 4.6 fold
C[C@@H](N)[C@H]1O[C@@H](OC2C(O)[C@H](N)CC(N)[C@H]2O[C@H]2OC(CO)[C@@H](O)C(O)C2N)C(O)C1O (stereo partly drawn) [NB119, 5-O-(5-Amino-5,6-dideoxy-β-D-allofuranosyl)-paromamine] | 78 | 28 ± 1.1 | 28 ± 1.1 | 13 | 19800 ± 400 | 2.13 ± 0.478 | 2.13 ± 0.478 | – | 20100 ± 600 | 4990 (≈ 2340 µg/mL) | comparatively small | –
NC[C@@H]1O[C@H](O[C@H]2[C@@H](O)[C@H](O[C@@H]3[C@@H](O)[C@H](N)C[C@H](N)[C@H]3O[C@H]3O[C@H](CO)[C@@H](O)[C@H](O)[C@H]3N)O[C@@H]2CO)[C@H](N)[C@@H](O)[C@@H]1O [Paromomycin, reference compound] | 1.2 | 57 ± 4 | 57 ± 4 | 1,118 | – | 0.051 ± 0.005 | 0.051 ± 0.005 | – | – | 22 (≈ 13.5 µg/mL) | – | more selective to prokaryotic versus eukaryotic ribosome [2]: 1,118 fold; CC50 [3]: 4100 ± 500 µM; CC50 [6]: 3100 ± 400 µM
